Publication PMC6264397, “Interaction of the Main Components from the Traditional Chinese Drug Pair Chaihu-Shaoyao Based on Rat Intestinal Absorption” (Molecules, 2011)
“And” between values parts separate entries of the source, which are not always exact repeats. Equal entries are not always repeated. Where two headings read alike, the source gives them in different places.

Legend:
rat intestine = experiment: four-site single-pass perfused rat intestinal model; type: in vivo; design: P*eff Duodenum / P*eff Jejunum / P*eff Ileum: unit not given here
Protocol: The absorptions of SSA, SSD and paeoniflorin in different intestinal segments were studied by the rat intestinal perfusion model. The concentrations of all the compounds of interest were 20 μmol·L^−1. The concentrations of the compounds in the perfusate samples were analyzed by UPLC or LC/MS, and then the P*eff and […] of SSA, SSD and paeoniflorin were calculated.
The perfusion protocol was approved by the Animal Ethics Committee of Jiangsu Provincial Academy of Chinese Medicine. The intestinal surgical procedures were described in our previous publications. Briefly, rats were anesthetized with an intra-muscular injection of urethane (0.5 g mL^−1) and placed on a heated surface maintained at its normal body temperature. Four segments of intestine, duodenum, jejunum, ileum, and colon (8–12 cm) were simultaneously cannulated with no disruption of circulation to the intestine, each with two cannulae. After cannulation, the small intestinal segments were placed carefully into the abdominal cavity, avoiding crimping or kinking of the segments. To keep the temperature of the perfusate constant, the inlet cannulate was kept warm by a 37 °C circulating water bath.
This is a single-pass perfusion method. Four segments of the intestine (duodenum, upper jejunum, terminal ileum, and colon) were perfused simultaneously with a perfusate containing the compound of interest using an infusion pump (Harvard Apparatus, Cambridge, MA, USA) at a flow rate of 0.2 mL min^−1. After a 30-min washout period, which is usually sufficient to achieve the steady-state absorption, four samples were collected from the outlet cannulae every 30 min afterward. After perfusion, the length of the intestine was measured as described previously. The outlet concentrations of the test compounds in the luminal perfusate were determined by HPLC or LC/MS.
The outlet concentrations of SSA and SSD were determined by LC/MS using a HPLC-Agilent 6410 Triple Quad (Agilent, Palo Alto, CA, USA) system equipped with an atmospheric-pressure chemical ionization source. The samples were separated on a Zorbax SB-C18 column (250 mm × 4.6 mm, 5 μm, Agilent) and Zorbax SB-C18 precolumn (4.6 × 12.5 mm, […], Agilent). The mobile phase consisted of acetonitrile and water (40:60, v/v), and the flow rate was 0.4 mL·min^−1. The column temperature was maintained at 35 °C and the injection volume was 20 μL. For MS analysis, atmospheric-pressure chemical ionization (APCI) source was operated in the negative ion mode. The selected parameters were as follows: drying nitrogen gas at 350 °C and a flow-rate of […]; nebulizer pressure at 20 p.s.i.g. (1 p.s.i. = 6894.76 Pa); vaporizer temperature at 325 °C; capillary voltage at 4,500 V and corona current at 4 μA. The chromatograms obtained for quantitation were recorded under time-scheduled SIM, with fragmentor voltages was set at 150 V. The scan range was from m/z 250 to m/z 1,000. The instrument was programmed for a scan dwell time of 200 ms. Intense […] ions at m/z 781 and m/z 255 were shown for SSA (SSD) and chrysin(internal standard). In general, these methods were selective and reproducible with day to day variability of less than 3%. The tested linear response range for SSA and SSD was 0.625 to 80 μM. The accuracy and precision were greater than 98%. The recovery of three different concentrations was around 90.91%~92.66%, and RSD was less than 5% (n = 5).
UPLC was used to analyze the concentration of paeoniflorin in the perfusate samples. The conditions were as follows: Waters Acquity™ system, with diode array detector and Empower software; column, Acquity UPLC BEH C-18 1.7 μm, 50 × 2.1 mm, (Waters, Milford, MA, USA); mobile phase A, water; mobile phase B, acetonitrile; gradient, 0~0.8 min, 15~22% B, 0.8~1.0 min, 22% B, 1.0~1.5 min, 35% B, 1.5~2.2 min, 70% B; flow rate, 0.4 mL·min^−1; wavelength 230 nm (paeoniflorin) and 245 nm (testosterone, the internal standard); column temperature, 35 °C; injection volume, 10 μL. […]

Caco-2 cell = tested on: Caco-2 cell; design: method as in earlier work; conditions: cited from earlier work
[1] = co-administrated with SSA, colon
[2] = co-administrated with SSA, ileum
[3] = co-administration with SSD, colon
[4] = co-administration with SSD, ileum
[5] = compound alone, 20 μmol·L−1, colon, n = 4
[6] = compound alone, 20 μmol·L−1, duodenum, n = 4
[7] = compound alone, 20 μmol·L−1, ileum, n = 4
[8] = compound alone, 20 μmol·L−1, jejunum, n = 4

## C[C@@]12C[C@@]3(O)O[C@@H](O1)[C@]1(COC(=O)c4ccccc4)[C@H]3C[C@@]12O[C@@H]1O[C@H](CO)[C@@H](O)[C@H](O)[C@H]1O [Paeoniflorin, paeoniflorin]
Rat intestine; co-administrated with SSA (20:20 μmol·L−1), colon
  P*eff Colon: 0.636 ± 0.034
Rat intestine; co-administrated with SSA (20:20 μmol·L−1), duodenum
  P*eff Duodenum: 0.279 ± 0.049
Rat intestine; co-administrated with SSA (20:20 μmol·L−1), ileum
  P*eff Ileum: 0.665 ± 0.053
Rat intestine; co-administrated with SSA (20:20 μmol·L−1), jejunum
  P*eff Jejunum: 0.263 ± 0.029
Rat intestine; [1]
  fold increase of 10% ABS vs individual compound: 1.25 fold
  fold increase of P*eff vs individual compound: 1.90 fold
Rat intestine; [2]
  fold increase of 10% ABS vs individual compound: 1.40 fold
  fold increase of P*eff vs individual compound: 2.11 fold and ~2.11 fold
Rat intestine; co-administrated with SSD, colon
  P*eff Colon: 0.696 ± 0.054
Rat intestine; co-administrated with SSD, duodenum
  P*eff Duodenum: 0.304 ± 0.048
Rat intestine; co-administrated with SSD, ileum
  P*eff Ileum: 0.731 ± 0.052
Rat intestine; co-administrated with SSD, jejunum
  P*eff Jejunum: 0.280 ± 0.051
Rat intestine; co-administration with SSA (20:20 μmol·L−1), colon, n = 4
  10 cm % ABS Colon: 12.07 ± 0.46 * %
Rat intestine; co-administration with SSA (20:20 μmol·L−1), colon, n = 4, listed as paeoniflorin
  10 cm % ABS Colon: 12.07 ± 0.46%
Rat intestine; co-administration with SSA (20:20 μmol·L−1), duodenum, n = 4
  10 cm % ABS Duodenum: 6.13 ± 1.82%
Rat intestine; co-administration with SSA (20:20 μmol·L−1), ileum, n = 4
  10 cm % ABS Ileum: 12.57 ± 0.36 * %
Rat intestine; co-administration with SSA (20:20 μmol·L−1), ileum, n = 4, listed as paeoniflorin
  10 cm % ABS Ileum: 12.57 ± 0.36%
Rat intestine; co-administration with SSA (20:20 μmol·L−1), jejunum, n = 4
  10 cm % ABS Jejunum: 4.78 ± 1.15%
Rat intestine; [3]
  fold increase of 10% ABS vs individual compound: 1.51 fold
  fold increase of P*eff vs individual compound: 2.18 fold
Rat intestine; co-administration with SSD, colon, n = 4
  10 cm % ABS Colon: 13.48 ± 0.57 * %
Rat intestine; co-administration with SSD, colon, n = 4, listed as paeoniflorin
  10 cm % ABS Colon: 13.48 ± 0.57%
Rat intestine; co-administration with SSD, duodenum, n = 4
  10 cm % ABS Duodenum: 6.68 ± 1.91%
Rat intestine; [4]
  fold increase of 10% ABS vs individual compound: 1.63 fold
  fold increase of P*eff vs individual compound: 2.42 fold and ~1.90 fold
Rat intestine; co-administration with SSD, ileum, n = 4
  10 cm % ABS Ileum: 13.75 ± 0.99 * %
Rat intestine; co-administration with SSD, ileum, n = 4, listed as paeoniflorin
  10 cm % ABS Ileum: 13.75 ± 0.99%
Rat intestine; co-administration with SSD, jejunum, n = 4
  10 cm % ABS Jejunum: 5.77 ± 1.39%
Rat intestine; [5]
  10 cm % ABS Colon: 5.37 ± 1.19%
  P*eff Colon: 0.219 ± 0.051
Rat intestine; compound alone, 20 μmol·L−1, colon, n = 4, listed as paeoniflorin
  P*eff Colon: 0.219
Rat intestine; [6]
  10 cm % ABS Duodenum: 6.57 ± 0.98%
  P*eff Duodenum: 0.268 ± 0.042
Rat intestine; compound alone, 20 μmol·L−1, duodenum, n = 4, listed as paeoniflorin
  P*eff Duodenum: 0.268
Rat intestine; [7]
  10 cm % ABS Ileum: 5.23 ± 0.49%
  P*eff Ileum: 0.214 ± 0.021
Rat intestine; compound alone, 20 μmol·L−1, ileum, n = 4, listed as paeoniflorin
  P*eff Ileum: 0.214
Rat intestine; [8]
  10 cm % ABS Jejunum: 5.94 ± 0.70%
  P*eff Jejunum: 0.243 ± 0.030
Rat intestine; compound alone, 20 μmol·L−1, jejunum, n = 4, listed as paeoniflorin
  P*eff Jejunum: 0.243
Caco-2 cell; after individual paeoniflorin was transported
  change of electric resistance values of Caco-2 cell membranes: no significant change
Caco-2 cell; paeoniflorin co-administered with saikosaponins
  change of electric resistance values of Caco-2 cell membranes: significantly decreased

## C[C@H]1O[C@@H](O[C@H]2CC[C@@]3(C)[C@@H](CC[C@]4(C)[C@@H]3C=C[C@]35OC[C@@]6(CCC(C)(C)C[C@H]63)[C@@H](O)C[C@]54C)[C@]2(C)CO)[C@H](O)[C@@H](O[C@@H]2O[C@H](CO)[C@@H](O)[C@H](O)[C@H]2O)[C@H]1O [SSA, saikosaponin a]
Rat intestine; co-administrated with paeoniflorin (20:20 μmol·L−1), colon
  P*eff Colon: 0.215 ± 0.030
Rat intestine; co-administrated with paeoniflorin (20:20 μmol·L−1), duodenum
  P*eff Duodenum: 0.193 ± 0.028
Rat intestine; co-administrated with paeoniflorin (20:20 μmol·L−1), ileum
  P*eff Ileum: 0.347 ± 0.036
Rat intestine; co-administrated with paeoniflorin (20:20 μmol·L−1), jejunum
  P*eff Jejunum: 0.194 ± 0.023
Rat intestine; co-administration with paeoniflorin (20:20 μmol·L−1), colon, n = 4
  10 cm % ABS Colon: 3.51 ± 0.73%
Rat intestine; co-administration with paeoniflorin (20:20 μmol·L−1), duodenum, n = 4
  10 cm % ABS Duodenum: 4.11 ± 0.30%
Rat intestine; co-administration with paeoniflorin (20:20 μmol·L−1), ileum, n = 4
  10 cm % ABS Ileum: 5.20 ± 0.67%
Rat intestine; co-administration with paeoniflorin (20:20 μmol·L−1), jejunum, n = 4
  10 cm % ABS Jejunum: 3.49 ± 0.61%
Rat intestine; [5]
  10 cm % ABS Colon: 3.84 ± 0.10%
  P*eff Colon: 0.239 ± 0.042
Rat intestine; [6]
  10 cm % ABS Duodenum: 3.75 ± 0.57%
  P*eff Duodenum: 0.193 ± 0.028
Rat intestine; [7]
  10 cm % ABS Ileum: 6.26 ± 0.56 * %
  P*eff Ileum: 0.361 ± 0.014 *
Rat intestine; [8]
  10 cm % ABS Jejunum: 3.91 ± 0.60%
  P*eff Jejunum: 0.207 ± 0.012
